The record followed here is article PMC9518288, “The mechanism and pharmacodynamics of 2-((1H-indol-3-yl)thio/sulfinyl)-N-pheny acetamide derivative as a novel inhibitor against human respiratory syncytial virus” (Journal of Enzyme Inhibition and Medicinal Chemistry, 2022).

Each structure is given as a SMILES string.

Experiment [1] concerns RSV-Luc. As to the kind of experiment: In vivo mouse imaging, intraperitoneal injection. Details: species or system BALB/c mice. Particulars: i.p. 10, 30, 90 mg/kg once a day, days 1-5; except 4–49 C 10 and 90 mg/kg groups on the second day. The procedure:
(§1) Female BALB/c mice of 6-8 weeks were purchased from Charles River Laboratories, Beijing, China and randomly divided into different groups with six mice in each group. All animal experiments were performed in compliance with protocols approved by the Institutional Animal Care and Use Committees of Tsinghua University (No. 17-DZJ1). The compounds (DMSO and ribavirin of 90 mg/kg was used as negative and positive control, respectively) with three different dose groups of 10, 30 and 90 mg/kg were administered to mice by intraperitoneal (i.p.) injection or oral route (anaesthesia with 2% halothane) at zero day and 1 h prior to the mice infected with 50 μL RSV-Luc (1 × 10^6 PFU), and then once a day for 5 consecutive days post RSV-Luc infection. For the in vivo mouse imaging, 50 μL PBS containing D-Luciferin Potassium Salt (75 mg/kg) was administered to BALB/c mice via nasal drip at days 1, 2, 3, 4 and 5 since RSV-Luc infection, and 5 min later, the whole-body images of BALB/c mice were acquired using an IVIS Lumina II in vivo imaging system (PE, Waltham, MA, USA). And the signal intensity was quantified as the total flux (photons/seconds) using Living Image software (PE).
Female BALB/c mice of 6–8 weeks were randomly divided into different groups with 6 mice in each group. […]

The subject of experiment [2] is RSV-Luc. In words: Determination of RSV titre from lung tissues (RT-qPCR). Type of experiment: in vivo, BALB/c mice. The note with it: i.p. 10, 30, 90 mg/kg, day 5 post-infection. The protocol: Following the experiment of the in vivo mouse imaging mentioned above, the mice were sacrificed. The lung tissues were collected, weighed, quickly frozen under liquid nitrogen and ground with a tissue homogeniser. Then the total RNA was extracted by Trizol from 100 µL homogenates. The viral RNA sample (1 µL) was mixed with the SYBR Green supermix (10 µL), plasmid pMD-18T-N (1 µL, copy number from 1 × 10^7 copies/μL to 1 × 10^5 copies/μL), the upstream and downstream primers, respectively (10 µM, 1 µL) and water (1 µL). Reactions were performed in SLAN-96P Real-Time PCR System (Shanghai Hongshi Medical Technology) as follows: 42 °C for 60 min (for reverse transcription), 95 °C for 1.5 min, 95 °C for 15 s and 60 °C for 1 min, for 40 cycles. The reaction data were analysed by determining the threshold cycle (Ct).
Female BALB/c mice of 6–8 weeks were randomly divided into different groups with 6 mice in each group. All animal experiments were performed in compliance with protocols approved by the Institutional Animal Care and Use Committees of Tsinghua University (No. 17-DZJ1). At day 0, three different doses of 4–49 C and 1-HB-63 (10 mg/kg, 30 mg/kg, 90 mg/kg) were administered to mice by intraperitoneal (i.p.) injection, respectively, with DMSO and ribavirin of 90 mg/kg separately used as negative and positive control. […]

Experiment [3] has as its system RSV-Luc. As to the kind of experiment: In vivo mouse imaging, oral route (intragastric). Details: species or system BALB/c mice. Particulars: intragastric 30 and 90 mg/kg, gavage twice a day. The procedure:
as §1, with “and then once a day for 5 consecutive days post RSV-Luc infection.” left out
In order to further make clear whether the anti-RSV activity of 4–49 C and 1-HB-63 is dependent on the administration route or not, these two compounds were given intragastrically (Figure 5(A)). […]

In the case of `O=C(C[S+]([O-])c1c[nH]c2ccccc12)Nc1ccccc1Br` (stereo not drawn) [1-HB-63], the “fluorescence signals (RSV-Luc replication in lungs) compared with DMSO-treated group” value in the experiment on RSV-Luc [1] is recorded as “did not display significant differences”. The “virus titres in lung tissues compared with DMSO” value with RSV-Luc [2] is recorded as “no significant differences”. The “fluorescence signals (RSV-Luc replication) compared with DMSO negative control group” value in the experiment with RSV-Luc [3] was “did not exhibit significant differences”.
On the same counts, the results for `CCOc1ccccc1NC(=O)CSc1c[nH]c2ccc(OC)cc12` [4–49 C] are “did not display significant differences”, “no significant differences” and “did not exhibit significant differences”.
